One cell line from the supplement of paper PMC10307832 can be followed below.

Holding throughout (experiment): relative viability (nuclei count vs DMSO), 5 days (fraction); higher = more cells survive
Compound in the experiment “Pazopanib + OSI-027”: Cc1ccc(Nc2nccc(N(C)c3ccc4c(C)n(C)nc4c3)n2)cc1S(N)(=O)=O [Pazopanib] + COc1cccc2cc(-c3nc([C@H]4CC[C@H](C(=O)O)CC4)n4ncnc(N)c34)[nH]c12 [OSI-027] (partner 0.5 µM)
The method in brief:
(§1)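 Lung cancer cell lines were seeded in 1536-well plates and dosed by pin tool the next day, with either a single drug or a fixed anchor-drug dose combined with five library-drug doses (not always all listed) spaced in √10 steps. Five days later, one step fixed the cells and stained their nuclei (final 0.05% Triton X-100, 1% formaldehyde, 1 ug/ml Hoechst), and nuclei were counted on 4× images. Relative viability is the nuclei count in treated wells divided by the count in vehicle wells, and each value is the median of duplicate plates.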

Compound in the experiment “Ponatinib + Bortezomib”: Cc1ccc(C(=O)Nc2ccc(CN3CCN(C)CC3)c(C(F)(F)F)c2)cc1C#Cc1cnc2cccnn12 [Ponatinib] + CC(C)C[C@H](NC(=O)[C@H](Cc1ccccc1)NC(=O)c1cnccn1)B(O)O [Bortezomib] (partner 0.002 µM)
The method in brief:
as §1

Compound in the experiment “Ponatinib + Vorinostat”: Cc1ccc(C(=O)Nc2ccc(CN3CCN(C)CC3)c(C(F)(F)F)c2)cc1C#Cc1cnc2cccnn12 [Ponatinib] + O=C(CCCCCCC(=O)Nc1ccccc1)NO [Vorinostat] (partner 1 µM)
In a few lines: as §1

Compound in the experiment “Pazopanib + Decitabine”: Cc1ccc(Nc2nccc(N(C)c3ccc4c(C)n(C)nc4c3)n2)cc1S(N)(=O)=O [Pazopanib] + Nc1ncn([C@H]2C[C@H](O)[C@@H](CO)O2)c(=O)n1 [Decitabine] (partner 2 µM)
In a few lines:
as §1

Take UMC-11: the relative viability with Pazopanib + OSI-027 (first compound 0.01 µM) came to 0.501; in the experiment with Pazopanib + OSI-027 (first compound 0.03162 µM), 0.544; with Pazopanib + OSI-027 (first compound 0.1 µM) it was 0.442; with Pazopanib + OSI-027 (first compound 0.3162 µM) it was 0.504; with Pazopanib + OSI-027 (first compound 1 µM) it was 0.541; with Ponatinib + Bortezomib (first compound 0.002 µM), 0.653. In addition, the relative viability with Ponatinib + Bortezomib (first compound 0.006325 µM) turned out to be 0.769; in the experiment with Ponatinib + Bortezomib (first compound 0.06325 µM) it was 0.921; with Ponatinib + Bortezomib (first compound 0.2 µM), 0.646; with Ponatinib + Vorinostat (first compound 0.002 µM), 0.411; with Ponatinib + Vorinostat (first compound 0.006325 µM), 0.403; with Ponatinib + Vorinostat (first compound 0.06325 µM) it was 0.51. For the same cell line, the relative viability in the experiment with Ponatinib + Vorinostat (first compound 0.2 µM) was determined as 0.486; with Pazopanib + Decitabine (first compound 0.01 µM), 0.598; with Pazopanib + Decitabine (first compound 0.03162 µM) it was 0.686; with Pazopanib + Decitabine (first compound 0.1 µM), 0.616; with Pazopanib + Decitabine (first compound 0.3162 µM) it was 0.578; with Pazopanib + Decitabine (first compound 1 µM), 0.49.
